Laboratory results reported in patent US12103943B2, “Development of novel clofarabine analogs for cancer therapy” (Southern Research Institute, priority 2021, dated 2024).
“Also recorded” adds a separate entry of the source. Where two headings read alike, the source gives them in different places.

Legend:
MDA-MB-231 = experiment: Cell viability after 72-hour incubation, CellTiter-Glo 2.0; type: cell-based; conditions: Homo sapiens, read-out: IC50 (μM) MDA-MB-231
Experimental: (§1) Select tumor lines representative of triple negative breast cancer (MDA-MB-231 and BT549) were identified for testing of efficacy of compounds. Assessment of compound efficacy was determined by a test of cell viability after 72-hour incubation with compound using CellTiter-Glo 2.0 (Promega). […] Selectivity index is defined as the ratio of the calculated IC50 in normal epithelial lines to the calculated IC50 in a cancerous cell line. For CellTiter-Glo cells are plated in a 96-well, opaque, flat-bottomed black plate. Cells are seeded at 5,000 cells per well and allowed to incubate for 6 hours to allow for attachment. Cells are then dosed in a 12-point serial dilution spanning a range of 50 μM to 25 nM. Clofarabine is used as a positive control for all cell lines, and each plate contains media only, and DMSO controls as negatives for each compound tested. Final volume for both cells and compound should be 100 uL. After 72-hour exposure to compound, plates are removed from the incubator and allowed to equilibrate to room temperature for 30 minutes. An equal volume of CellTiter-Glo 2.0 reagent is added to media present in well (100 uL). Plates are then placed onto an orbital shaker and allow to incubate while shaking for 10 to 15 minutes. Raw luminescence readings are obtained. Log transformations of the background subtracted data are analyzed using a 4PL-fit model, and IC50 values are calculated based on the sigmoidal fit of the non-linear regression model.

BT549 = experiment: as above; type: cell-based; conditions: Homo sapiens, read-out: IC50 (μM) BT549
Experimental: as §1

[1] = Basic dose escalation test for tolerance of drug concentration; type: in vivo; conditions: dose escalation 25, 40, 55 mg/kg, Q1D×5 with 2-day washout, B6C3F1/N female mice, FIG. 2
Experimental: Briefly, a cohort of B6C3F1/N female mice were split into three dosing arms: Control (N=2), Clofarabine (N=3), and compound 5 (N=3). The dosing schedule was set based on previous and historical dosing with nucleosides, Q1D×5 with a 2-day washout period before dose escalation. The selected dose concentrations were 25 mg/kg, 40 mg/kg, and 55 mg/kg. Blood was collected weekly by submandibular bleed for ALT and AST measurements, and at necropsy major organs were examined for gross toxicity.

MDA-MB-231 cells = experiment: In vivo efficacy in a solid tumor, triple negative breast cancer model; conditions: 25 mg/kg intraperitoneal for 2 weeks, s.c. MDA-MB-231 tumors in athymic nude mice, FIG. 1
Experimental: Athymic nude mice (Crl:Nu(NCr)-Fox^1nu; Charles River) were injected s.c. in the right flank with 100 uL MDA-MB-231 cells in 1:1 RPMI 1640 and Cultrex BME Type 3 (1×10^6 cells/mouse). Tumors were allowed to grow until 500 mm^3 (Tumor Volume= […]×Length×Width^2), at which point mice were dosed […] for 2 weeks by intraperitoneal injection with either vehicle (N-Methyl-2-Pyrrolidone (NMP), Polyethylene glycol 400 (PEG400), and saline at a ratio of 1:2:2 v/v/v), 25 mg/kg of Clofarabine, or 25 mg/kg of compound 5. Tumor volumes were measured twice weekly, and bodyweight was measured daily during the dosing period. This was a pilot test to determine anti-tumor growth activity, so regrowth was not measured and the study was terminated two days after the final dose.

[2] = MDA-MB-231 triple negative breast cancer cells, 72-hour exposure, CellTiter-Glo 2.0, 50 μM to 25 nM
[3] = BT-549, BT549 triple negative breast cancer cells, 72-hour exposure, CellTiter-Glo 2.0, 50 μM to 25 nM

Structure (SMILES): COC(=O)[C@H](C)NP(=O)(OC[C@H]1O[C@@H](n2cnc3c(N)nc(C(F)(F)F)nc32)C(F)C1O)Oc1ccccc1 (mixture of isomers) [Compound 12, methyl (2S)-2-[[phenoxy-[[rac-(2R,3R,4S,5R)-5-[6-amino-2-(trifluoromethyl)purin-9-yl]-4-fluoro-3-hydroxy-tetrahydrofuran-2-yl]methoxy]phosphoryl]amino]propanoate]
- IC50 (MDA-MB-231; MDA-MB-231, 72 h): 13.7 µM
- IC50 (BT549; BT-549, 72 h): 13.1 µM

Structure (SMILES): Nc1nc(Cl)nc2c1ncn2[C@@H]1O[C@H](CO)[C@@H](O)[C@@H]1F [Clofarabine, 2-chloro-2′-fluoro-2′-deoxy-9-β-D-arabinofuranosyladenine]
- tolerance of drug concentration (toxicity, survival) [1]: Toxicity was seen immediately following the 55 mg/kg dose

Structure (SMILES): Nc1nc(C(F)(F)F)nc2c1ncn2[C@@H]1O[C@H](CO)[C@@H](O)[C@@H]1F [Compound 5, (2R,3R,4S,5R)-5-[6-amino-2-(trifluoromethyl)purin-9-yl]-4-fluoro-2-(hydroxymethyl)tetrahydrofuran-3-ol]
- IC50 (MDA-MB-231; [2]): 4.16 µM
- IC50 (BT549; [3]): 0.018 µM
- tumor volume / anti-tumor growth activity (MDA-MB-231 cells): effectively reduces tumor volume; also recorded: anti-growth efficacy

Structure (SMILES): CC(C)Nc1nc(C(F)(F)F)nc2c1ncn2[C@@H]1O[C@H](CO)[C@@H](O)[C@@H]1F [Compound 7a, (2R,3R,4S,5R)-4-fluoro-2-(hydroxymethyl)-5-(6-(isopropylamino)-2-(trifluoromethyl)purin-9-yl)tetrahydrofuran-3-ol]
- IC50 (MDA-MB-231; [2]): 20.5 µM

Structure (SMILES): CCC(CC)Nc1nc(C(F)(F)F)nc2c1ncn2[C@@H]1O[C@H](CO)[C@@H](O)[C@@H]1F [Compound 7b, (2R,3R,4S,5R)-5-[6-(1-ethylpropylamino)-2-(trifluoromethyl)purin-9-yl]-4-fluoro-2-(hydroxymethyl)tetrahydrofuran-3-ol]
- IC50 (MDA-MB-231; [2]): ≥ 67 µM
- IC50 (BT549; [3]): > 50 µM

Structure (SMILES): OC[C@H]1O[C@@H](n2cnc3c(NC4CC4)nc(C(F)(F)F)nc32)[C@@H](F)[C@@H]1O [Compound 7c, (2R,3R,4S,5R)-5-[6-(cyclopropylamino)-2-(trifluoromethyl)purin-9-yl]-4-fluoro-2-(hydroxymethyl)tetrahydrofuran-3-ol]
- IC50 (MDA-MB-231; [2]): 2.58 µM

Structure (SMILES): CC(Nc1nc(C(F)(F)F)nc2c1ncn2[C@@H]1O[C@H](CO)[C@@H](O)[C@@H]1F)C1CC1 (stereo partly drawn) [Compound 7d, (2R,3R,4S,5R)-5-[6-(1-cyclopropylethylamino)-2-(trifluoromethyl)purin-9-yl]-4-fluoro-2-(hydroxymethyl)tetrahydrofuran-3-ol]
- IC50 (MDA-MB-231; [2]): 20.5 µM
- IC50 (BT549; [3]): 15.1 µM

Structure (SMILES): OC[C@H]1O[C@@H](n2cnc3c(NC4CCC4)nc(C(F)(F)F)nc32)[C@@H](F)[C@@H]1O [Compound 7e, (2R,3R,4S,5R)-5-[6-(cyclobutylamino)-2-(trifluoromethyl)purin-9-yl]-4-fluoro-2-(hydroxymethyl)tetrahydrofuran-3-ol]
- IC50 (BT549; [3]): 13.8 µM

Structure (SMILES): CC1(Nc2nc(C(F)(F)F)nc3c2ncn3[C@@H]2O[C@H](CO)[C@@H](O)[C@@H]2F)CCC1 [Compound 7f, (2R,3R,4S,5R)-4-fluoro-2-(hydroxymethyl)-5-[6-[(1-methylcyclobutyl)amino]-2-(trifluoromethyl)purin-9-yl]tetrahydrofuran-3-ol]
- IC50 (MDA-MB-231; [2]): > 50 µM
- IC50 (BT549; [3]): 13.5 µM

Structure (SMILES): OC[C@H]1O[C@@H](n2cnc3c(NC4CCCC4)nc(C(F)(F)F)nc32)[C@@H](F)[C@@H]1O [Compound 7g, (2R,3R,4S,5R)-5-[6-(cyclopentylamino)-2-(trifluoromethyl)purin-9-yl]-4-fluoro-2-(hydroxymethyl)tetrahydrofuran-3-ol]
- IC50 (BT549; [3]): 5.89 µM

Structure (SMILES): CCCCCCCCCCCC(=O)Nc1nc(C(F)(F)F)nc2c1ncn2[C@@H]1O[C@H](CO)[C@@H](O)[C@@H]1F [Compound 10, N-[9-[(2R,3S,4R,5R)-3-fluoro-4-hydroxy-5-(hydroxymethyl)tetrahydrofuran-2-yl]-2-(trifluoromethyl)purin-6-yl]dodecanamide]
- IC50 (MDA-MB-231; [2]): 3.19 µM

Structure (SMILES): CC(C)C(=O)OC[C@H]1O[C@@H](n2cnc3c(N)nc(C(F)(F)F)nc32)[C@@H](F)[C@@H]1O [Compound 15, [(2R,3R,4S,5R)-5-[6-amino-2-(trifluoromethyl)purin-9-yl]-4-fluoro-3-hydroxy-tetrahydrofuran-2-yl]methyl 2-methylpropanoate]
- IC50 (MDA-MB-231; [2]): 7.12 µM
- IC50 (BT549; [3]): > 50 µM

Structure (SMILES): CC[C@@H](C)[C@@H](N)C(=O)OC[C@H]1O[C@@H](n2cnc3c(N)nc(C(F)(F)F)nc32)[C@@H](F)[C@@H]1O [Compound 18, [(2R,3R,4S,5R)-5-[6-amino-2-(trifluoromethyl)purin-9-yl]-4-fluoro-3-hydroxy-tetrahydrofuran-2-yl]methyl (2R,3R)-2-amino-3-methyl-pentanoate]
- IC50 (MDA-MB-231; [2]): 11.4 µM
- IC50 (BT549; [3]): > 50 µM
